# According to patent US7282484B2, “Anti-tumor agents” (Point Therapeutics, Inc., priority 1999, dated 2007):
# Several values for one entry are separate records, joined by “and”; a condition that tells them apart may be missing. Equal values may be shown once.
# Experiments:
# [1] = system: DPPIV-like activity of Fischer D+ and D− rat BM stromal cells; assay: DPPIV-like activity assay on rat bone marrow stromal cells; format: cell-based
# Experimental: (§1) Cell Source. 8-12 week old female wild type CD26 positive (D^+) and CD26 negative (D^−) Fischer rat (Charles River Labs, Japan) bone marrow.
# (§2) Bone marrow preparation. Bone marrow was flushed from each femur, tibia and fibula with Dulbecco's phosphate buffered saline (D-PBS) using a 21-gauge needle and a 10 ml syringe. After removal, the bone marrow was immediately aspirated through the needle to make a single cell suspension. The cells were washed twice with sterile PBS and resuspended in MyeloCult H5100 long-term culture (LTC) media, available from Stem Cell Technologies, and supplemented with freshly diluted 10^−6 M hydrocortisone, available from Sigma.
# Establishment of adherent bone marrow stromal cell cultures. […]
# DPPIV-like activity assay. […] The reaction was stopped by removing the substrate solution from each well and measured in the fluorescence spectrophotometer or stored −20° C. Activity was measured using an excitation wavelength of 400 nm and emission wavelength of 505 nm.
# Bone marrow stromal cells were established from the long bones of Fischer D^+ and D^− rats and cultured for 2 days in the presence or absence of PT-100. […] DPPIV-like activity is presented as velocity and the percent of protease activity inhibition with PT-100 is calculated relative to a ‘no treatment’ control.
# [2] = system: Fischer D+ and D− rat bone marrow stromal cells; assay: IL-6 release from rat bone marrow stromal cells (ELISA); format: cell-based; settings: 2 days incubation
# Experimental: as §1, §2
# Establishment of adherent bone marrow stromal cell cultures. 1-2×10^7 cells were seeded into a T25 flask (Coming) containing 10 mls of LTC medium and incubated at 37° C. in 100% humidified 5% CO2 in air. After 1 week half the medium was exchanged for fresh medium and incubated for approximately 1 week until a confluent cell layer formed. PT-100 incubation. The adherent stromal cells were removed from the flask by trypsin-EDTA (Life Technologies, Inc.) digestion, washed once with sterile PBS and resuspended in long term culture medium at 1×10^5/ml. […]
# Similar levels of IL-6 are secreted from bone marrow stromal cells of D^+ and D^− rats. […] IL-6 levels in the culture supernatant were determined by ELISA.
# [3] = system: FAP-α+ CD26− primary human stromal cells; assay: G-CSF release from FAP-α+ CD26− primary human stromal cells (ELISA); format: cell-based; settings: human bone marrow cells lacking CD26 but expressing FAP-α, 2 days incubation
# Experimental: (§3) Cell source. Bone marrow was kindly donated by New England Medical Center, Boston, Mass. and Dr. Richard Benjamin from Brigham and Women's Hospital in Boston, Mass. Mononuclear cells were purified over Ficoll and used immediately or frozen in liquid nitrogen.
# Establishment of human stromal feeder layer. 2 to 4×10^7 human bone marrow mononuclear cells were seeded into a T75 flask (Corning) containing 20 mls of LTC medium and incubated. at 37° C. in 100% humidified 5% CO2 in air. After 1 week half the medium was exchanged for fresh medium and incubated for approximately 1 week when a confluent cell layer formed.
# ELISA of human cells. Cultured supernatants were assayed for a high sensitivity ELISA (R+D Systems).
# PT-100 incubation, supernatant collection and DPPIV-like activity assay for human and rat cells were carried out in an identical manner.
# The DPPIV-like activity associated with the intact cells was inhibited by-PT-100. Stromal cells were established from the bone marrow of a human volunteer as described in the materials and methods. The stromal cells were incubated for 2 days in the presence or absence of the indicated concentrations of PT-100 and cultured supernatants were assayed for IL-6 or DPPIV-like activity as described in Materials and Methods.
# [4] = system: DPPIV-like activity of FAP-α+ CD26− primary human stromal cells; assay: DPPIV-like activity assay on FAP-α+ CD26− primary human stromal cells; format: cell-based; settings: human stromal cells lacking CD26 but expressing FAP-α, 2 days incubation
# Experimental: DPPIV-like activity assay. Following the removal of supernatant from the stromal cultures, the adherent cells were washed with D-PBS and assayed for DPPIV-like activity. The fluorogenic substrate Ala-Pro-AFC was diluted in DPPIV buffer (50 mM Hepes, 140 mM NaCl) from the original stock of 10 mM (stored at −20° C. as a solution in dimethyl-formamide) to 1 mM, directly before the assay. 30 μl of the 1 mM stock was added per ml of buffer and the stromal cells were incubated for 10 minutes with 1 ml per well of the diluted substrate. The reaction was stopped by removing the substrate solution from each well and measured in the fluorescence spectrophotometer or stored −20° C. Activity was measured using an excitation wavelength of 400 nm and emission wavelength of 505 nm.
# as §3
# Establishment of human stromal feeder layer. 2 to 4×10^7 human bone marrow mononuclear cells were seeded into a T75 flask (Corning) containing 20 mls of LTC medium and incubated. at 37° C. in 100% humidified 5% CO2 in air. After 1 week half the medium was exchanged for fresh medium and incubated for approximately 1 week when a confluent cell layer formed. […]
# B16-F0 tumor = assay: Established subcutaneous B16 melanoma in C57BL/6 mice; format: in vivo, mouse
# Experimental: The highly metastic B16-F0 tumor was implanted subcutaneously (s.c.) in C57BL/6 mice. PT-100 administration was started on day 8 when palpable tumors were apparent. Tumor volumes were measured on days 8, 12, and 15. […] In the experiment of FIG. 4 each experimental group contained 10 animals.
# WEHI-164 fibrosarcoma = assay: Subcutaneous WEHI-164 fibrosarcoma in mice; format: in vivo, mouse
# Experimental: Thus in the experiment of FIG. 5, the large reductions in tumor volume recorded were in part due to the absence of a palpable tumor in some of the mice:in each of the PT-100 treated groups (10 replicate animals per group). For example, in the mice treated with the 5 μg dose of PT-100 administered b.i.d., 6 of the animals were completely free of a detectable s.c. tumor. PT-100 treatment of the mice in the experimental groups was stopped on day 20, the day when the data of FIG. 5 were recorded.
# [5] = administration started on day 2 after implantation
smiles,measurement,setting,value
"CC(C)[C@H](N)C(=O)N1CCC[C@H]1B(O)O [PT-100, valine-proline-boronic acid]",% Inhibition by 10^−6 M PT-100 of DPPIV-like activity,"[1]; Fischer D− (CD26 negative) rat BM stromal cells, 2 days culture, 10^−6 M, relative to no treatment control",86.4% and 73.8% and 62.1%
same,Inhibition of DPPIV-like activity (in words),[1]; rat bone marrow stromal cells which lack CD26,potently inhibited
same,IL-6 levels in culture supernatant,[2],enhanced
same,G-CSF release,[3],potently stimulated
same,Inhibition of DPPIV-like activity associated with the intact cells,[4],inhibited
same,Tumor growth,"B16-F0 tumor; 160 μg administered for two days, day 8 and day 9",effective in suppressing tumor growth
same,Tumor growth compared with saline treated control mice,"B16-F0 tumor; 10 and 40 μg p.o. b.i.d. from day 8 to 14, tumor volumes days 8, 12, 15",markedly inhibited
same,Growth of B16 melanoma,"B16-F0 tumor; administered orally, mice",significantly inhibits
same,Animals completely free of a detectable s.c. tumor,"WEHI-164 fibrosarcoma; 5 μg b.i.d., started day 2, recorded day 20, 10 animals per group",6 animals
same,Growth of WEHI-164 fibrosarcoma,"WEHI-164 fibrosarcoma; administered orally, mice",significantly inhibits
same,Tumor growth,WEHI-164 fibrosarcoma; [5],tumor growth inhibited
same,Tumor necrosis and regression,WEHI-164 fibrosarcoma; [5],a proportion of the tumors also became necrotic and apparently regressed completely
same,Growth of an established s.c. tumor,WEHI-164 fibrosarcoma; established s.c. WEHI-164 tumor,could suppress the growth
same,Tumor recurrence in mice recorded as tumor-free on day 20,"WEHI-164 fibrosarcoma; treatment stopped on day 20, monitored up to day 30 after implantation",none of the mice recorded as tumor-free on day 20 has developed a detectable s.c. tumor
